Measured values published in patent US11497752B2, “Compounds and uses thereof” (Foghorn Therapeutics Inc., priority 2018, dated 2022).

Columns and labels:
BRG-1 = BRG-1 (Homo sapiens, UniProt P51532); experiment: ATPase catalytic activity of BRG-1 (ADP-Glo in vitro biochemical assay)
BRM = BRM (Homo sapiens, UniProt P51531); experiment: ATPase catalytic activity of BRM (ADP-Glo in vitro biochemical assay)
Chain of BRM (P51531 whole entry): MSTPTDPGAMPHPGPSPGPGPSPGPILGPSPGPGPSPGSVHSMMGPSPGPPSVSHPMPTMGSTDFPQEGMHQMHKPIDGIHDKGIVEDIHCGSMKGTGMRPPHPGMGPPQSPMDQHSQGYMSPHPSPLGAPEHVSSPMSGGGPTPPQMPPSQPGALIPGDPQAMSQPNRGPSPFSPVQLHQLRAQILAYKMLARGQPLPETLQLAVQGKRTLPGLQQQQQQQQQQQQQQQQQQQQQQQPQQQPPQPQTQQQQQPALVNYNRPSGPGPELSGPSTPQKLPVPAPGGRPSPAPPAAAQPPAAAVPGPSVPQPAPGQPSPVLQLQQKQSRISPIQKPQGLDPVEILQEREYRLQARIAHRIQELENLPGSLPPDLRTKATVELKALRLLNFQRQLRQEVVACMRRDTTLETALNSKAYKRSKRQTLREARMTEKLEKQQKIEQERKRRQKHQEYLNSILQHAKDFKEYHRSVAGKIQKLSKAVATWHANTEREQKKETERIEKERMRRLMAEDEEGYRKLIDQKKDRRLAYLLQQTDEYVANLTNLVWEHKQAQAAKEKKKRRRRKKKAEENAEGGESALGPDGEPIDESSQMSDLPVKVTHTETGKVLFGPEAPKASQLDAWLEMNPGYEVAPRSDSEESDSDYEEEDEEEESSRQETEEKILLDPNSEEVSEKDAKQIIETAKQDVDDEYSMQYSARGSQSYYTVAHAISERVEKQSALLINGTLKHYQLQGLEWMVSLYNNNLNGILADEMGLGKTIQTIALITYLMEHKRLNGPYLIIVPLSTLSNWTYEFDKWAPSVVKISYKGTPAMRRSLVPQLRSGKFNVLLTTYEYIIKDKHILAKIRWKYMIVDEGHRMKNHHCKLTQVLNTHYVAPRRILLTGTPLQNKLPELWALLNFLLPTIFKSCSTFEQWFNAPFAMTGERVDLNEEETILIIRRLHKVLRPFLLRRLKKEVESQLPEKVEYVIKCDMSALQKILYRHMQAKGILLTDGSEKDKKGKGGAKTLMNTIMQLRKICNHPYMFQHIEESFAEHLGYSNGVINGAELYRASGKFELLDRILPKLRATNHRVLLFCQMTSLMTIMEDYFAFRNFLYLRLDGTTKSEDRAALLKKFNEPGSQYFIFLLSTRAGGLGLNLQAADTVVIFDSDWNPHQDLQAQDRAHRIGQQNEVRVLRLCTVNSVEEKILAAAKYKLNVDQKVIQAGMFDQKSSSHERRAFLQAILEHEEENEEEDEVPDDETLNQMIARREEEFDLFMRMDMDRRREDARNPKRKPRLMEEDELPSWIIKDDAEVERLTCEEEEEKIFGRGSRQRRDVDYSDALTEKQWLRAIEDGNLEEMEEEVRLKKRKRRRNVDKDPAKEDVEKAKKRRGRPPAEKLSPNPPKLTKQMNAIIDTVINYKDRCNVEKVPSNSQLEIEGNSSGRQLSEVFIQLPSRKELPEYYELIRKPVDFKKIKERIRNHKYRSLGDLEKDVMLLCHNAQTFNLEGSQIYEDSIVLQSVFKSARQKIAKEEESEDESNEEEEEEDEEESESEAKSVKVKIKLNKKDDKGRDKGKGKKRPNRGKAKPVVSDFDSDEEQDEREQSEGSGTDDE

Chain of BRG-1 (P51532 whole entry): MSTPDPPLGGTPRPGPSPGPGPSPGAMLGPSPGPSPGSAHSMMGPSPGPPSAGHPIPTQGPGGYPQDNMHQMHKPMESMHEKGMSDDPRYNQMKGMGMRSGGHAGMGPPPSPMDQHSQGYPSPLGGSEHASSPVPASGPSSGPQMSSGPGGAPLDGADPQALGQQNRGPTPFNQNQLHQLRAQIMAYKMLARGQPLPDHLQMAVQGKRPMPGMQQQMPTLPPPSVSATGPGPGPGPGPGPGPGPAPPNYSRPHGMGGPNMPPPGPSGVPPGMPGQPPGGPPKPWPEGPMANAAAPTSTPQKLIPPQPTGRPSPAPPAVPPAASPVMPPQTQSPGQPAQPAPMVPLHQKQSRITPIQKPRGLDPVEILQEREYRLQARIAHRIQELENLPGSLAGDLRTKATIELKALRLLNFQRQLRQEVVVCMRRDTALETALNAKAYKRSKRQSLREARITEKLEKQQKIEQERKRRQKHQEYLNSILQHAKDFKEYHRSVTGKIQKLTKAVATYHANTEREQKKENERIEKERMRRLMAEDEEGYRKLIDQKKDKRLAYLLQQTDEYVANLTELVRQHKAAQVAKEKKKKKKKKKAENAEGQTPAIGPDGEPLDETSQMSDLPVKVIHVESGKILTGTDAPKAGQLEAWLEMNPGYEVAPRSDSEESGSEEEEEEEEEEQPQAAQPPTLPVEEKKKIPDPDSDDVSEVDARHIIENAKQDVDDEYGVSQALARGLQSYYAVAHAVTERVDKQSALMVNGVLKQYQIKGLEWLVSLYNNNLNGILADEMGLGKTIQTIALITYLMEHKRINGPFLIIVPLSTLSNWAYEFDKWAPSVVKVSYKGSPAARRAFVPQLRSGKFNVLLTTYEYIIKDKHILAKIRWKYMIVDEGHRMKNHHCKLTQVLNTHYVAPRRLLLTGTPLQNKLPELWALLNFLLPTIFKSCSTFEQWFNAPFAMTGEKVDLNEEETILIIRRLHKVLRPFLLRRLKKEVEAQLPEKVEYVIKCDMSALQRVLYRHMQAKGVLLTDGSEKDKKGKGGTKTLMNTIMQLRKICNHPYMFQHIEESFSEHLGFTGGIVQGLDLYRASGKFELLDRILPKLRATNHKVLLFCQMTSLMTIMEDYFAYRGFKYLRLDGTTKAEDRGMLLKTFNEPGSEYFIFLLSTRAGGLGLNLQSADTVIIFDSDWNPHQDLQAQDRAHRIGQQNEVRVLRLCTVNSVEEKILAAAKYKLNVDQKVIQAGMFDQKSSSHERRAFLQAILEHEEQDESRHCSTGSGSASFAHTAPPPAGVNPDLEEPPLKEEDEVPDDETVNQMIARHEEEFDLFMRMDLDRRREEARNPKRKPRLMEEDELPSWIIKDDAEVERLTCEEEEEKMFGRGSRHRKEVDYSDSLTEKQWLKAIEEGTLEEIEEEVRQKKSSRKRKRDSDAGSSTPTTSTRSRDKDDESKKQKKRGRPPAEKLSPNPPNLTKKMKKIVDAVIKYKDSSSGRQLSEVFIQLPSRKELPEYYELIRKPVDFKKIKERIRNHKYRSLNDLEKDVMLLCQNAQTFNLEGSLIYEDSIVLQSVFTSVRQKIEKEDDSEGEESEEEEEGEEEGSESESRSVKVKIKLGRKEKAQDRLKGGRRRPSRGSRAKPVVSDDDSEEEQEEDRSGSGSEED

| SMILES | IC50 (BRG-1) | BRG1 Max % Inhibition (BRG-1; Table 6) | IC50 (BRM) | BRM Max % Inhibition (BRM; Table 6) | BRG1 Max % Inhibition (BRG-1; Table 5) | BRM Max % Inhibition (BRM; Table 5) |
| --- | --- | --- | --- | --- | --- | --- |
| CS(=O)(=O)c1ccc(-c2cccc(-c3csc(NC(=O)CNC(=O)c4ccc(N)cc4)n3)c2)cc1 [Compound 134, 4-amino-N-(2-((4-(4′-(methylsulfonyl)-[1,1′-biphenyl]-3-yl)thiazol-2-yl)amino)-2-oxoethyl)benzamide] | 0.1 to 1 µM | >50% | 0.1 to 1 µM | >50% |  |  |
| NCc1cccc(-c2cccc(-c3csc(NC(=O)CNC(=O)c4ccc(N)cc4)n3)c2)c1 [Compound 135, 4-amino-N-(2-((4-(3′-(aminomethyl)-[1,1′-biphenyl]-3-yl)thiazol-2-yl)amino)-2-oxoethyl)benzamide] | < 0.1 µM | >95% | < 0.1 µM | >95% |  |  |
| Nc1ccc(C(=O)NCC(=O)Nc2nc(-c3ccnc(-c4ccncc4)c3)cs2)cc1 [Compound 217, 4-amino-N-[2-oxo-2-[[4-[2-(4-pyridyl)-4-pyridyl]thiazol-2-yl]amino]ethyl]benzamide] | < 0.1 µM | >90% | < 0.1 µM | >90% |  |  |
| Cc1ccccc1-c1csc(NC(=O)CNC(=O)c2cccc(S(=O)(=O)N(C)C)c2)n1 [Compound 16, 3-(dimethylsulfamoyl)-N-[2-[[4-(o-tolyl)thiazol-2-yl]amino]-2-oxo-ethyl]benzamide] | > 10 µM |  | 1 to 10 µM |  | >60% | >80% |
| Nc1ccc(C(=O)NCC(=O)Nc2nc(-c3cccc(N4CCC[C@@H](O)C4)c3)cs2)cc1 [Compound 234, 4-amino-N-[2-[[4-[3-[(3R)-3-hydroxy-1-piperidyl]phenyl]thiazol-2-yl]amino]-2-oxo-ethyl]benzamide] | 0.1 to 1 µM | >90% | 0.1 to 1 µM | >90% |  |  |
| CC(=O)NCc1cccc(-c2csc(NC(=O)CNC(=O)c3cccc(S(=O)(=O)N(C)C)c3)n2)c1 [Compound 5, N-[2-[[4-[3-(acetamidomethyl)phenyl]thiazol-2-yl]amino]-2-oxo-ethyl]-3-(dimethylsulfamoyl)benzamide] | > 10 µM |  | > 10 µM |  | >70% | >90% |
| CCC[C@H](NC(=O)c1ccccc1)C(=O)Nc1nc(-c2ccccc2)cs1 [Compound 51, N-[(1S)-1-[(4-phenylthiazol-2-yl)carbamoyl]butyl]benzamide] | > 10 µM |  | 1 to 10 µM |  |  |  |
| CC(C)(C(=O)O)n1ccc(-c2cccc(-c3csc(NC(=O)CNC(=O)c4ccc(N)cc4)n3)c2)n1 [Compound 212, 2-[3-[3-[2-[[2-[(4-aminobenzoyl)amino]acetyl]amino]thiazol-4-yl]phenyl]pyrazol-1-yl]-2-methyl-propanoic acid] | 0.1 to 1 µM | >95% | 0.1 to 1 µM | >95% |  |  |
| CSCC[C@H](NC(=O)c1cccc(S(=O)(=O)N(C)C)c1)C(=O)Nc1nc(-c2ccccc2)cs1 [Compound 24, (S)-3-(N,N-dimethylsulfamoyl)-N-(4-(methylthio)-1-oxo-1-((4-phenylthiazol-2-yl)amino)butan-2-yl)benzamide] |  |  | 1 to 10 µM |  | >99% | >70% |
| CN(C)S(=O)(=O)c1cccc(C(=O)NCC(=O)Nc2nc(-c3ccc4c(c3)OCCO4)cs2)c1 [Compound 15, N-(2-((4-(2,3-dihydrobenzo[b][1,4]dioxin-6-yl)thiazol-2-yl)amino)-2-oxoethyl)-3-(N,N-dimethylsulfamoyl)benzamide] | 1 to 10 µM |  | 1 to 10 µM |  | >60% | >80% |
| CSCC[C@H](NC(=O)c1cccc(C(C)(C)C)c1)C(=O)Nc1nc(-c2ccccc2)cs1 [Compound 73, (S)-3-(tert-butyl)-N-(4-(methylthio)-1-oxo-1-((4-phenylthiazol-2-yl)amino)butan-2-yl)benzamide] | 1 to 10 µM |  | < 1 µM |  | >30% | >50% |
| NCCNc1cc(-c2cccc(-c3csc(NC(=O)CNC(=O)c4ccc(N)cc4)n3)c2)ccn1 [Compound 160, 4-amino-N-(2-((4-(3-(2-((2-aminoethyl)amino)pyridin-4-yl)phenyl)thiazol-2-yl)amino)-2-oxoethyl)benzamide] | 0.1 to 1 µM | >95%, | 0.1 to 1 µM | >95% |  |  |
| Cn1ncc2ccc(-c3csc(NC(=O)CNC(=O)c4ccc(N)cc4)n3)cc21 [Compound 228, 4-amino-N-[2-[[4-(1-methylindazol-6-yl)thiazol-2-yl]amino]-2-oxo-ethyl]benzamide] | 0.1 to 1 µM | >90% | 0.1 to 1 µM | >90% |  |  |
| CN(CC(=O)O)c1cc(-c2cccc(-c3csc(NC(=O)CNC(=O)c4ccc(N)cc4)n3)c2)ccn1 [Compound 200, 2-[[4-[3-[2-[[2-[(4-aminobenzoyl)amino]acetyl]amino]thiazol-4-yl]phenyl]-2-pyridyl]-methyl-amino]acetic acid] | < 0.1 µM | >95% | < 0.1 µM | >95% |  |  |
| COC(=O)Cc1cc(-c2cccc(-c3csc(NC(=O)CNC(=O)c4ccc(N)cc4)n3)c2)ccn1 [Compound 177, methyl 2-(4-(3-(2-(2-(4-aminobenzamido)acetamido)thiazol-4-yl)phenyl)pyridin-2-yl)acetate] | < 0.1 µM | >95% | < 0.1 µM | >95% |  |  |
| CSCC[C@H](NC(=O)c1ccc(N)cc1)C(=O)Nc1nc(-c2cccc(-c3ccc(CN)cc3)c2)cs1 [Compound 118, (S)-4-amino-N-(1-((4-(4′-(aminomethyl)-[1,1′-biphenyl]-3-yl)thiazol-2-yl)amino)-4-(methylthio)-1-oxobutan-2-yl)benzamide] | 1 to 10 µM | >90% | 0.1 to 1 µM | >90% |  |  |
| CSCC[C@H](NC(=O)c1cc(S(=O)(=O)N(C)C)cs1)C(=O)Nc1nc(-c2ccccc2)cs1 [Compound 64, 4-(dimethylsulfamoyl)-N-[(1S)-3-methylsulfanyl-1-[(4-phenylthiazol-2-yl)carbamoyl]propyl]thiophene-2-carboxamide] | 1 to 10 µM |  | 1 to 10 µM |  | >60% | >70% |
| CSCC[C@H](NC(=O)c1ccc(N)cc1)C(=O)Nc1nc(-c2ccc(C#N)cc2)cs1 [Compound 107, (S)-4-amino-N-(1-((4-(4-cyanophenyl)thiazol-2-yl)amino)-4-(methylthio)-1-oxobutan-2-yl)benzamide] | 1 to 10 µM | >95% | 0.1 to 1 µM | >95% |  |  |
| Nc1ccc(C(=O)NCC(=O)Nc2nc(-c3cccc(-c4cnn(CC(=O)O)c4)c3)cs2)cc1 [Compound 176, 2-(4-(3-(2-(2-(4-aminobenzamido)acetamido)thiazol-4-yl)phenyl)-1H-pyrazol-1-yl)acetic acid] | 0.1 to 1 µM | >80% | 0.1 to 1 µM | >90% |  |  |
| N#Cc1cccc(-c2cccc(-c3csc(NC(=O)CNC(=O)c4ccc(N)cc4)n3)c2)c1 [Compound 157, 4-amino-N-(2-((4-(3′-cyano-[1,1′-biphenyl]-3-yl)thiazol-2-yl)amino)-2-oxoethyl)benzamide] | < 0.1 µM | >90% | < 0.1 µM | >95% |  |  |
| Nc1ccc(C(=O)NCC(=O)Nc2nc(-c3ccc4cncnc4c3)cs2)cc1 [Compound 240, 4-amino-N-[2-oxo-2-[(4-quinazolin-7-ylthiazol-2-yl)amino]ethyl]benzamide] | 0.1 to 1 µM | >80% | 0.1 to 1 µM | >80% |  |  |
| Nc1ccc(C(=O)NCC(=O)Nc2nc(-c3cccc(-c4ccnc(N5CCNCC5)c4)c3)cs2)cc1 [Compound 159, 4-amino-N-(2-oxo-2-((4-(3-(2-(piperazin-1-yl)pyridin-4-yl)phenyl)thiazol-2-yl)amino)ethyl)benzamide] | 0.1 to 1 µM | >95% | 0.1 to 1 µM | >90% |  |  |
| CSCC[C@H](NC(=O)c1ccc(N)cc1)C(=O)Nc1nc(-c2cc(C#N)cc(-c3ccccc3)c2)cs1 [Compound 116, (S)-4-amino-N-(1-((4-(5-cyano-[1,1′-biphenyl]-3-yl)thiazol-2-yl)amino)-4-(methylthio)-1-oxobutan-2-yl)benzamide] | 0.1 to 1 µM | >95% | 0.1 to 1 µM | >95% |  |  |
| CC(=O)N(C)Cc1cccc(-c2cccc(-c3csc(NC(=O)CNC(=O)c4ccc(N)cc4)n3)c2)c1 [Compound 129, 4-amino-N-(2-((4-(3′-((N-methylacetamido)methyl)-[1,1′-biphenyl]-3-yl)thiazol-2-yl)amino)-2-oxoethyl)benzamide] | 0.1 to 1 µM | >95% | 0.1 to 1 µM | >95% |  |  |
| CSCC[C@H](NC(=O)c1ccc(S(C)(=O)=O)cc1)C(=O)Nc1nc(-c2ccccc2)cs1 [Compound 86] | > 10 µM |  | > 10 µM |  | >70% | >70% |
| CN(C)CCn1cc(-c2cccc(-c3csc(NC(=O)CNC(=O)c4ccc(N)cc4)n3)c2)ccc1=O [Compound 170, 4-amino-N-(2-((4-(3-(1-(2-(dimethylamino)ethyl)-6-oxo-1,6-dihydropyridin-3-yl)phenyl)thiazol-2-yl)amino)-2-oxoethyl)benzamide] | 0.1 to 1 µM | >95% | 0.1 to 1 µM | >95% |  |  |
| COC(=O)C(C)(C)n1ccc(-c2cccc(-c3csc(NC(=O)CNC(=O)c4ccc(N)cc4)n3)c2)n1 [Compound 209, methyl 2-[3-[3-[2-[[2-[(4-aminobenzoyl)amino]acetyl]amino]thiazol-4-yl]phenyl]pyrazol-1-yl]-2-methyl-propanoate] | < 0.1 µM | >95% | < 0.1 µM | >95% |  |  |
